Experimental data published in paper PMC9736856, “Biological Investigation and Chemical Study of Brassica villosa subsp. drepanensis (Brassicaeae) Leaves” (Molecules, 2022).
One block for each molecule: values may come before it.

Assays:
[1] = ABTS radical-scavenging assay; settings: cell free
Experimental: In this assay, a solution of ABTS radical cations was mixed with a potassium persulphate solution and stored at room temperature for 12 h. The obtained solution was diluted with ethanol, read to obtain an absorbance of 0.70 at 734 nm, and added to the tested sample (1–400 μg/mL). After 6 min, the absorbance was read at 734 nm. Ascorbic acid was the positive control. The ABTS radical-scavenging ability was calculated with this equation: [(A0−A1)/A0] × 100, where A0 is the absorbance of the control and A1 is the absorbance in the presence of the samples.

[2] = β-carotene bleaching test
Experimental: The β-carotene bleaching test was performed following the procedure previously described, using propyl gallate as the positive control. […] The microplate was located in a water bath at 45 °C and the absorbance was read at 470 nm against a blank at t = 0 and after 30 and 60 min of incubation.

DPPH test = settings: positive control
Experimental: Free radical-scavenging capacity was analysed through the ability of the total extract and the fractions to bleach the stable radical DPPH. […] Briefly, after 10 min at room temperature, the absorbance at λ = 517 nm of the DPPH reaction mixture containing different concentrations of […] extract (125-1000 μg/mL) in 1 mL of ethanol was recorded. Results, expressed as decrease in absorbance, represent the average ± S.D. of three independent experiments.

CaCo-2 cells = assay: MTT assay, CaCo-2; format: cell-based; settings: Homo sapiens, read-out: IC50 (MTT, cytotoxicity standard)
Experimental: The human foreskin fibroblast cell line HFF-1 (ATCC® SCRC-1041.1) was maintained in DMEM supplemented with 15% v/v foetal bovine serum (FBS), 4.5 g/L glucose, 100 U/mL penicillin, and […] streptomycin. HFF-1 was used as an in vitro human model for preliminary toxicity screening. Mouse leukemic monocyte-macrophage cells RAW 264.7 (Sigma-Aldrich 91062702) were cultured in EMEM supplemented with 2 mM L-Glutamine (Euroclone, Milan, Italy), 1% non-essential amino acids, 10% FBS, and penicillin/streptomycin/amphotericin. […] was used as an in vitro model of LPS-induced inflammation. Human colon carcinoma cells CaCo-2 (ATCC®, HTB-37) were cultured in DMEM supplemented with 10% FBS, 1 mmol/L sodium pyruvate, 2 mmol/L L-glutamine, streptomycin ([…]), and penicillin (50 U/mL). […]
HFF-1, RAW 264.7, CaCo-2, DU145, 1321N1, and U87 MG cells were treated with different concentrations of total extract (25–50–100–150–250–500–1000 μg/mL), while RAW 264.7 cells were also treated with the fractions obtained from the total extract (EtOAc, n-BuOH, and H2O) at the same concentrations (25–50–100–150–250–500–1000 μg/mL) for 24 h. […] The absorbance of the converted formazan was measured using a microplate spectrophotometer reader (Titertek Multiskan, Flow Laboratories, Helsinki, Finland) at λ = 570 nm. […]

[3] = SOD-like activity (superoxide anion scavenging, NADH oxidation); settings: positive control
Experimental: The scavenger effect of B. drepanensis extract and the fractions on superoxide anions was recorded as a decrease in absorbance at λ = 340 nm, as previously reported by Salerno et al.. […] SOD (80 mU) was used as a reference compound.

Molecule: O=C1O[C@H]([C@@H](O)CO)C(O)=C1O [Ascorbic acid, ascorbic acid]
ABTS Test IC50 [1]: 1.73 ± 0.06 µg/mL

Molecule: CCCOC(=O)c1cc(O)c(O)c(O)c1 [Propyl gallate, propyl gallate]
β-Carotene Bleaching Test IC50 ([2]; after 30 min of incubation): 0.09 ± 0.04 µg/mL
β-Carotene Bleaching Test IC50 ([2]; after 60 min of incubation): 0.09 ± 0.04 µg/mL

Molecule: COc1cccc2c1C(=O)c1c(O)c3c(c(O)c1C2=O)C[C@@](O)(C(=O)CO)C[C@@H]3O[C@H]1C[C@H](N)[C@H](O)[C@H](C)O1 [doxorubicin, Doxorubicin]
IC50 (CaCo-2 cells): 21 ± 0.3 µM

Now from value to molecule:

IC50 (DPPH test): 15 µM
Molecule: Cc1c(C)c2c(c(C)c1O)CCC(C)(C(=O)O)O2 (stereo not drawn) [Trolox]

SOD-like Activity IC50 [3]: 40 mU ± 0.85
Molecule: superoxide dismutase [SOD]
